From ChEMBL document CHEMBL5036311, “X-ray Crystal Structure-Guided Design and Optimization of 7H-Pyrrolo[2,3-d]pyrimidine-5-carbonitrile Scaffold as a Potent and Orally Active Monopolar Spindle 1 Inhibitor” (J Med Chem, 2021)
pIC50: −log10 of the molar value. The source made the active and inactive calls. No cut-off for these calls is given here.

Experiments:
[1] = target: T1, Dual specificity protein kinase TTK (Homo sapiens) (UniProt P33981); assay: Binding affinity to human hexa-His tagged MPS1 (515 to 795 residue) expressed in Escherichia coli BL2I-DE3 cells assessed as change in melting temperature by thermal shift assay
T1 sequence (whole entry): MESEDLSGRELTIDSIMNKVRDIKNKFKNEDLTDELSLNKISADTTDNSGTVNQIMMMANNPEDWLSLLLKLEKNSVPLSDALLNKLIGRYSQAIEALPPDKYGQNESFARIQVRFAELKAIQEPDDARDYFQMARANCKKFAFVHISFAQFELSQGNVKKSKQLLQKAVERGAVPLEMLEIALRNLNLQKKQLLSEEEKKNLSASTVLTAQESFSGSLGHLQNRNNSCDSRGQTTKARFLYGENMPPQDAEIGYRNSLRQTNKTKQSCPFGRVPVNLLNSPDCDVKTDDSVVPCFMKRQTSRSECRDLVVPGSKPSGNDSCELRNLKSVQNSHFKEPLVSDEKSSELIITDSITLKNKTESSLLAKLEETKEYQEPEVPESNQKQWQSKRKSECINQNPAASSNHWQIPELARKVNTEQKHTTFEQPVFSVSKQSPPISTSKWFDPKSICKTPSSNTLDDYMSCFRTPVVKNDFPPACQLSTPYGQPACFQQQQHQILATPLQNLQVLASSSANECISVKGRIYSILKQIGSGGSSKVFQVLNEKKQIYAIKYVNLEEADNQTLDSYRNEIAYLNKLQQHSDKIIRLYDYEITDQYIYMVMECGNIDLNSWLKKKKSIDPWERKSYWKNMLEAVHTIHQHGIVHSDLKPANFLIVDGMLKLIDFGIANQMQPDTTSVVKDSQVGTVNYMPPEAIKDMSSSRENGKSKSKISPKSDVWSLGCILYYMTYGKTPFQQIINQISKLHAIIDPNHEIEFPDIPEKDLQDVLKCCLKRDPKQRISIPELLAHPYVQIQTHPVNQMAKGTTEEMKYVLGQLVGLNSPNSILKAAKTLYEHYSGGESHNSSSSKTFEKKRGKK

MDA-MB-231 [2] = assay: Growth inhibition of human MDA-MB-231 cells measured after 5 days by CellTiter-Glo assay; assay type: functional; settings: time 5 day; for GI50: Homo sapiens, MDA-MB-231, 120 h
[3] = target: T2, Dual specificity protein kinase TTK (Homo sapiens, UniProt P33981); assay: Inhibition of human hexa-His tagged MPS1 (515 to 795 residue) expressed in Escherichia coli BL2I-DE3 cells incubated for 4 hrs in presence of ATP by ADP-glo luminescence assay
T2 sequence (P33981 whole entry): T1 sequence (whole entry)

[4] = Metabolic stability in human liver microsomes assessed as compound remaining after 30 mins; assay type: ADME, Microsome; settings: read-out: Stability
[5] = Half life in ICR mouse at 10 mg/kg, po; assay type: ADME, organism-based; settings: in vivo
[6] = Cmax in ICR mouse at 10 mg/kg, po; assay type: ADME, organism-based; design: route oral, dose 10 mg/kg; settings: in vivo
[7] = AUC in ICR mouse at 10 mg/kg, po; assay type: ADME, organism-based; design: dose 10 mg/kg; settings: in vivo
[8] = Oral bioavailability in ICR mouse at 10 mg/kg; assay type: ADME, organism-based; settings: in vivo
MDA-MB-231 [9] = assay: Antitumor activity against human MDA-MB-231 cells xenografted in athymic mouse model assessed as tumor growth inhibition at 2 mg/kg administered daily and measured twice a week; assay type: functional; settings: read-out: TGI
[10] = Toxicity in athymic mouse xenografted with human MDA-MB-231 cells assessed as change in intestine morphology at 2 mg/kg administered daily and measured twice a week; assay type: organism-based; settings: in vivo
[11] = Toxicity in athymic mouse xenografted with human MDA-MB-231 cells assessed as effect on body weight at 2 mg/kg administered daily and measured twice a week; assay type: organism-based; settings: in vivo
[12] = Toxicity in athymic mouse xenografted with human MDA-MB-231 cells assessed as body weight gain at 2 mg/kg administered daily and measured twice a week (reference value: 15.5 %); assay type: organism-based; settings: in vivo
[13] = target: T1, Dual specificity protein kinase TTK (Homo sapiens); assay: Inhibition of human […] assessed as reduction in MPS1 autophosphorylation at 0.1 to 10 uM by Western blot analysis; settings: dose 0.1-10 µM
[14] = target: T1, Dual specificity protein kinase TTK (Homo sapiens); assay: Inhibition of human […] assessed as reduction in histone H3 phosphorylation at 0.1 to 10 uM by Western blot analysis; settings: dose 0.1-10 µM

Structure (SMILES)	ΔTm [1] [°C]	GI50 (MDA-MB-231 [2]) [nM]	GI90 (MDA-MB-231 [2]) [nM]	further results
CCCCNc1nc(Nc2ccc(N3CCCC3=O)cc2OC)nc2[nH]cc(C#N)c12	11.2	18	267	–
CNc1nc(Nc2ccc(N3CCCC3=O)cc2OC)nc2[nH]cc(C#N)c12	7.3	637	>1000	–
COc1cc(N2CCCC2=O)ccc1Nc1nc(NCC(C)(C)C)c2c(C#N)c[nH]c2n1	14.4	149	>1000	–
Cn1cc(Nc2nc(NC3CCCCC3)c3c(C#N)c[nH]c3n2)cn1	15.2	109	>1000	–
COc1cc(N2CCCC2=O)ccc1Nc1nc(NC2CCCCC2)c2cc[nH]c2n1	15.3	55	380	–
CC[C@H](C)Nc1nc(Nc2ccc(N3CCCC3=O)cc2OC)nc2[nH]cc(C#N)c12	15.1	96	328	–
COc1cc(N2CCCC2=O)ccc1Nc1nc(NCC(C)C)c2c(C#N)c[nH]c2n1	13.8	20	122	–
COCC(C)(C)Nc1nc(Nc2ccc(N3CCCC3=O)cc2OC)nc2[nH]cc(C#N)c12	15.1	916	>1000	–
COc1cc(C(=O)N2CCOCC2)ccc1Nc1nc(NC2CCCCC2)c2c(C#N)c[nH]c2n1	16.1	3	43	pIC50 [3]: 8.49; remaining at 0.5 h [4]: 56%; half-life [5]: 2.6 h; Cmax [6]: 995 ng/mL; AUC [7]: 3770 ng·h/mL; bioavailability [8]: 98%
Cc1cc(N2CCOCC2)ccc1Nc1nc(NC2CCCCC2)c2c(Cl)c[nH]c2n1	18.1	129	>1000	–
Cc1cc(N2CCOCC2)ccc1Nc1nc(NC2CCCCC2)c2c(C#N)c[nH]c2n1	19.9	17	313	pIC50 [3]: 8.20; remaining at 0.5 h [4]: 57%; half-life [5]: 1.2 h; Cmax [6]: 749 ng/mL; AUC [7]: 1270 ng·h/mL; bioavailability [8]: 44%
Cc1cc(N2CCOCC2)ccc1Nc1nc(NC2CCCCC2)c2c(C(F)(F)F)c[nH]c2n1	17.2	> 1000	>1000	–
COc1cc(N2CCCC2=O)ccc1Nc1nc(NC(C)C)c2c(C#N)c[nH]c2n1	14.2	10	481	–

Further lines, with some results ahead:

ΔTm [1] [°C]	GI50 (MDA-MB-231 [2]) [nM]	GI90 (MDA-MB-231 [2]) [nM]	Structure (SMILES)	further results
15.1	327	>1000	COc1cc(N2CCCC2=O)ccc1Nc1nc(NC2CCCCC2)c2c(C(F)(F)F)c[nH]c2n1	–
17.1	25	383	COc1cc(N2CCCC2=O)ccc1Nc1nc(NC2CCCC2)c2c(C#N)c[nH]c2n1	–
13.8	364	668	N#Cc1c[nH]c2nc(Nc3ccc(N4CCCC4=O)cn3)nc(NC3CCCCC3)c12	–
15.2	171	>1000	COc1cc(N2CCCC2=O)ccc1Nc1nc(NCC2CCCC2)c2c(C#N)c[nH]c2n1	–
18.3	11	37	COc1cc(N2CCCC2=O)ccc1Nc1nc(NC2CCCCC2)c2c(C#N)c[nH]c2n1	inhibition in vivo at 2 mg/kg (MDA-MB-231 [9]): 57%; pIC50 [3]: 8.19; remaining at 0.5 h [4]: 60%; half-life [5]: 1.1 h; Cmax [6]: 2220 ng/mL; AUC [7]: 6150 ng·h/mL; bioavailability [8]: 61%; Activity [10]: Non-Toxic; Activity [11]: Non-Toxic; Activity [12]: 7.6%; inhibition [13]: Active; inhibition [14]: Active
17.2	10	>1000	COc1cc(N2CCOCC2=O)ccc1Nc1nc(NC2CCCCC2)c2c(C#N)c[nH]c2n1	–
15.2	> 1000	>1000	COc1cc(N2CCCC2=O)ccc1Nc1nc(NCC2CCC2)c2c(C#N)c[nH]c2n1	–
14.8	> 1000	>1000	COc1cc(N2CCCC2=O)ccc1Nc1nc(NC2CCOCC2)c2c(C#N)c[nH]c2n1	–
17.2	46	67	N#Cc1c[nH]c2nc(Nc3ccc(N4CCCC4=O)cc3)nc(NC3CCCCC3)c12	–
16.9	108	478	CCOc1cc(N2CCCC2=O)ccc1Nc1nc(NC2CCCCC2)c2c(C#N)c[nH]c2n1	–
14.3	> 1000	>1000	COc1cc(N2CCCC2=O)ccc1Nc1nc(NC2CCC2)c2c(C#N)c[nH]c2n1	–
